Assays:
[1] = 19F relaxation times (T1, T2) under different solution conditions; type: physicochemical; conditions: for Relaxation Times T1 / Relaxation Times T2 / T1 percentage relative to T1 under Condition 1 / T2 percentage relative to T2 under Condition 1: pH 7, 50 mM; for Relaxation Times T1 / Relaxation Times T2 / pH dependency of 19F relaxation times T1 and T2: 11.7 Tesla; for pH dependency of 19F relaxation times T1 and T2: pH 6, 7 & 8
Procedure: The ^19F T1 and T2 were determined under different solution conditions for the paramagnetic ^19FIT-Gd^3+ and for the diamagnetic ^19FIT-Y^3+ from the above example (and shown in FIG. 6). The conditions and results are summarized below in Table 1. The percentage numbers for Conditions 2-5 were calculated relative to T1 or T2 under Condition 1. […] For example, the weakly paramagnetic O2 had little effect on the ^19F T1 and T2 of ^19FIT-Gd^3+.
19F T1 and T2 were also determined for ^19FIT-Gd^3+ and ^19FIT-Y^3+ at different pH values (pH 6 7 & 8). […] The NMR field strength for the testing was 11.7 Tesla.

[2] = 19F resonance frequency (chemical shift) with different metal ions; type: physicochemical; conditions: FIG. 6
Excerpt: In FIG. 6, the darker bars indicate paramagnetic ion complexes and the lighter bars indicate diamagnetic complexes. As shown in the graph of FIG. 6, the different metal ions led to different ^19F resonance frequencies, ranging from δ(^19FIT-Bi^3+)=−71.17 ppm to δ(^19FIT-Tb^3+)=−63.32 ppm. In each case, there was a single ^19F signal.

[3] = Condition 1: PBS buffer saturated with N2, 25° C.
[4] = Condition 2: PBS buffer saturated with O2, 25° C.
[5] = Condition 3: PBS buffer saturated with N2, 45° C.
[6] = Condition 4: Human sera with 10% D2O saturated with N2, 25° C.
[7] = Condition 5: 10% w/v bovine serum albumin in PBS buffer saturated with N2, 25° C.

| Structure (SMILES) | Relaxation Times T1 [1, 3] [ms] | Relaxation Times T2 [1, 3] [ms] | T1 percentage relative to T1 under Condition 1 [1, 4] | T2 percentage relative to T2 under Condition 1 [1, 4] | Relaxation Times T1 [1, 4] [ms] | Relaxation Times T2 [1, 4] [ms] | T1 percentage relative to T1 under Condition 1 [1, 5] | T2 percentage relative to T2 under Condition 1 [1, 5] | Relaxation Times T1 [1, 5] [ms] | Relaxation Times T2 [1, 5] [ms] | T1 percentage relative to T1 under Condition 1 [1, 6] | T2 percentage relative to T2 under Condition 1 [1, 6] | Relaxation Times T1 [1, 6] [ms] | Relaxation Times T2 [1, 6] [ms] | T1 percentage relative to T1 under Condition 1 [1, 7] | T2 percentage relative to T2 under Condition 1 [1, 7] | Relaxation Times T1 [1, 7] [ms] | Relaxation Times T2 [1, 7] [ms] | pH dependency of 19F relaxation times T1 and T2 [1] | 19F resonance frequency δ [2] [ppm] | also measured |
| --- | --- | --- | --- | --- | --- | --- | --- | --- | --- | --- | --- | --- | --- | --- | --- | --- | --- | --- | --- | --- | --- |
| O=C([O-])CN1CCN(CC(=O)[O-])CCN(CC(=O)NCCOCCOCCOCCOC(C(F)(F)F)(C(F)(F)F)C(F)(F)F)CCN(CC(=O)[O-])CC1.[Gd+3] [^19FIT-Gd^3+] | 4.24 | 1.66 | (−0.7%) | (−6.0%) | 4.27 | 1.56 | (−6.4%) | (−26.5%) | 3.97 | 1.22 | (−0.7%) | (−48.2%) | 4.27 | 0.86 | (6.6%) | (−66.9%) | 4.52 | 0.55 | neither complex showed significant pH dependency | – | effect of weakly paramagnetic O2 on 19F T1 and T2 ([1]; Condition 2 vs Condition 1): little effect |
| O=C([O-])CN1CCN(CC(=O)[O-])CCN(CC(=O)NCCOCCOCCOCCOC(C(F)(F)F)(C(F)(F)F)C(F)(F)F)CCN(CC(=O)[O-])CC1.[Tb+3] [^19FIT-Tb^3+] | – | – | – | – | – | – | – | – | – | – | – | – | – | – | – | – | – | – | – | −63.32 | – |
| O=C([O-])CN1CCN(CC(=O)[O-])CCN(CC(=O)NCCOCCOCCOCCOC(C(F)(F)F)(C(F)(F)F)C(F)(F)F)CCN(CC(=O)[O-])CC1.[Bi+3] [^19FIT-Bi^3+] | – | – | – | – | – | – | – | – | – | – | – | – | – | – | – | – | – | – | – | −71.17 | – |
| O=C([O-])CN1CCN(CC(=O)[O-])CCN(CC(=O)NCCOCCOCCOCCOC(C(F)(F)F)(C(F)(F)F)C(F)(F)F)CCN(CC(=O)[O-])CC1.[Y+3] [^19FIT-Y^3+] | 1498 | 1057 | (−28.3%) | (−37.1%) | 1074 | 665 | (42.4%) | (43.0%) | 2133 | 1511 | (−19.2%) | (−79.8%) | 1211 | 214 | (−19.9%) | (−86.8%) | 1200 | 139 | neither complex showed significant pH dependency | – | – |

Source: US20110217241A1, “CONJUGATES OF 19F MR IMAGING TRACERS FOR USE IN MULTI-CHROMIC MRI IMAGING” (University of Maryland, Baltimore, priority 2008, published 2011)
